# Results published in US20230399312A1, “SUBSTITUTED PYRIMIDINES AND METHODS OF USE” (THERAVANCE BIOPHARMA R&D IP, LLC, priority 2020, published 2023).
# Tests used:
# [1] = test system: TGF-β-stimulated SMAD3 phosphorylation in BEAS-2B cells; experiment: Cellular ALK5 potency assay, inhibition of TGF-β stimulated pSMAD3 formation in BEAS-2B cells; format: cell-based; conditions: Homo sapiens, pSMAD3, TGF-β 10 ng/mL, read-out: BEAS2B pIC50 (converted)
# Summary of the method: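 Human lung epithelial BEAS-2B cells were preincubated 1 h at 37 °C with compound in HBSS/HEPES/1% BSA, then stimulated 30 min with 10 ng/mL TGF-β. pSMAD3 in lysates was quantified by AlphaLISA relative to untreated stimulated cells; reported as pIC50.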
# [2] = molecular target: T1, recombinant human ALK5 (TGF-βR1) protein (Homo sapiens, UniProt P36897); experiment: Biochemical ALK5 (TGF-βR1) assay to measure pKi (LANCE Ultra ULight kinase assay); conditions: apparent pKi, converted from pIC50 by Cheng-Prusoff
# T1 construct: purchased Life Technologies PR9075A
# T1 sequence (P36897 34-503): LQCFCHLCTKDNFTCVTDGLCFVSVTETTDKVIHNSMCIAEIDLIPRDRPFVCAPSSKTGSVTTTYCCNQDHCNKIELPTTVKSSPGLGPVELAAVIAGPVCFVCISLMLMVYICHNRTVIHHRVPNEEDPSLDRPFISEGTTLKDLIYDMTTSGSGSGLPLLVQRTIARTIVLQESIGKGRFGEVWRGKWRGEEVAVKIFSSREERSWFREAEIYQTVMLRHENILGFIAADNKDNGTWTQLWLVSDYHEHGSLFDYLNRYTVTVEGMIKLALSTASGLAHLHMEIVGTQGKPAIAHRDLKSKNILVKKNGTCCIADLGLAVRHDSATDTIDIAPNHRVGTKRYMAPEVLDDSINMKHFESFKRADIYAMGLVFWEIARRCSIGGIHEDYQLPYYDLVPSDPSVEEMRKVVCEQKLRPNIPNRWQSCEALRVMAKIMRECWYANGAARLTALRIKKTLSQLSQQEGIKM
# Summary of the method: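 Dose-response series of each compound were preincubated with the kinase for 60 minutes at room temperature. Phosphorylation proceeded for 60 minutes at 37 °C after ATP addition, was quenched with EDTA, and was detected with a europium anti-phospho-Thr1342 antibody by TR-FRET; pKi was calculated from pIC50.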
Compound,IC50 [1],Ki [2]
"Cc1cccc(-c2nccc(Nc3ccnc(Nc4ccc(CN5CCC(C(=O)O[C@@H]6CCN(C)C6)C5)cc4)n3)n2)n1 (stereo partly drawn) [Compound 195, [(3R)-1-methylpyrrolidin-3-yl] 1-[[4-[[4-[[2-(6-methyl-2-pyridyl)pyrimidin-4-yl]amino]pyrimidin-2-yl]amino]phenyl]methyl] pyrrolidine-3-carboxylate]",25.1 to 158 nM,0.0398 to 0.316 nM
"Cc1cccc(-c2nccc(Nc3ccnc(Nc4ccc(N5CCCNCC5)cc4)n3)n2)n1 [Compound 196, N2-[4-(1,4-diazepan-1-yl)phenyl]-N4-[2-(6-methyl-2-pyridyl)pyrimidin-4-yl]pyrimidine-2,4-diamine]",25.1 to 158 nM,0.0398 to 0.316 nM
"Cc1cccc(-c2nccc(Nc3ccnc(Nc4ccc(CN5C6CCC5CNC6)cc4)n3)n2)n1 [Compound 197, N2-[4-(3,8-diazabicyclo[3.2.1]octan-8-ylmethyl)phenyl]-N4-[2-(6-methyl-2-pyridyl)pyrimidin-4-yl]pyrimidine-2,4-diamine]",25.1 to 158 nM,0.0398 to 0.316 nM
"Cc1cccc(-c2nccc(Nc3ccnc(Nc4ccc5c(c4)CN(C(C)C)CC5)n3)n2)n1 [Compound 198, N2-(2-isopropyl-3,4-dihydro-1H-isoquinolin-7-yl)-N4-[2-(6-methyl-2-pyridyl)pyrimidin-4-yl]pyrimidine-2,4-diamine]",25.1 to 158 nM,0.0398 to 0.316 nM
"Cc1cccc(-c2nccc(Nc3ccnc(Nc4ccc(NC5CNC5)cc4)n3)n2)n1 [Compound 199, N2-[4-(azetidin-3-ylamino)phenyl]-N4-[2-(6-methyl-2-pyridyl)pyrimidin-4-yl]pyrimidine-2,4-diamine]",25.1 to 158 nM,0.0398 to 0.316 nM
"Cc1cccc(-c2nccc(Nc3ccnc(Nc4ccc(CN5CCN[C@@H](C(=O)O)C5)cc4)n3)n2)n1 [Compound 200, (2R)-4-[[4-[[4-[[2-(6-methyl-2-pyridyl)pyrimidin-4-yl]amino]pyrimidin-2-yl]amino]phenyl]methyl] piperazine-2-carboxylic acid]",200 to 1260 nM,0.0398 to 0.316 nM
"COC(=O)C1CN(Cc2ccc(Nc3nccc(Nc4ccnc(-c5cccc(C)n5)n4)n3)cc2)CCN1C (centres unmarked) [Compound 201, methyl 1-methyl-4-[[4-[[4-[[2-(6-methyl-2-pyridyl)pyrimidin-4-yl]amino]pyrimidin-2-yl]amino]phenyl]methyl] piperazine-2-carboxylate]",25.1 to 158 nM,0.398 to 3.16 nM
"Cc1cccc(-c2nccc(Nc3ccnc(Nc4ccc(N(C)CC5CNC5)cc4)n3)n2)n1 [Compound 202, N2-(4-((azetidin-3-ylmethyl)(methyl)amino)phenyl)-N4-(2-(6-methylpyridin-2-yl)pyrimidin-4-yl)pyrimidine-2,4-diamine]",25.1 to 158 nM,0.0398 to 0.316 nM
"Cc1cccc(-c2nccc(Nc3ccnc(Nc4cccc(NC(=O)C5(O)CCNC5)c4)n3)n2)n1 (centres unmarked) [Compound 203, 3-hydroxy-N-[3-[[4-[[2-(6-methyl-2-pyridyl)pyrimidin-4-yl]amino]pyrimidin-2-yl]amino]phenyl]pyrrolidine-3-carboxamide]",≤ 20 nM,0.0398 to 0.316 nM
"COC(=O)C1CNCCN1c1ccc(Nc2nccc(Nc3ccnc(-c4cccc(C)n4)n3)n2)cc1 (centres unmarked) [Compound 204, methyl 1-[4-[[4-[[2-(6-methyl-2-pyridyl)pyrimidin-4-yl]amino]pyrimidin-2-yl]amino]phenyl]piperazine-2-carboxylate]",25.1 to 158 nM,0.0398 to 0.316 nM
"Cc1cccc(-c2nccc(Nc3ccnc(Nc4ccc(N5CCNCC5)c(CC(=O)OCC(C)C)c4)n3)n2)n1 [Compound 205, isobutyl 2-[5-[[4-[[2-(6-methyl-2-pyridyl)pyrimidin-4-yl]amino]pyrimidin-2-yl]amino]-2-piperazin-1-yl-phenyl]acetate]",25.1 to 158 nM,0.0398 to 0.316 nM
"Cc1cccc(-c2nccc(Nc3ccnc(Nc4csc(NC(=O)C5(CO)CNC5)c4)n3)n2)n1 [Compound 206, 3-(hydroxymethyl)-N-[4-[[4-[[2-(6-methyl-2-pyridyl)pyrimidin-4-yl]amino]pyrimidin-2-yl]amino]-2-thienyl]azetidine-3-carboxamide]",200 to 1260 nM,0.0398 to 0.316 nM
"Cc1cccc(-c2nccc(Nc3ccnc(Nc4cc(C(=O)OC5CNC5)cs4)n3)n2)n1 [Compound 207, azetidin-3-yl 5-[[4-[[2-(6-methyl-2-pyridyl)pyrimidin-4-yl]amino]pyrimidin-2-yl]amino]thiophene-3-carboxylate]",25.1 to 158 nM,0.0398 to 0.316 nM
"Cc1cccc(-c2nccc(Nc3ccnc(Nc4ccc(S(=O)(=O)NCCN)cc4)n3)n2)n1 [Compound 208, N-(2-aminoethyl)-4-[[4-[[2-(6-methyl-2-pyridyl)pyrimidin-4-yl]amino]pyrimidin-2-yl]amino]benzenesulfonamide]",≤ 20 nM,≤ 0.0316 nM
"Cc1cccc(-c2nccc(Nc3ccnc(Nc4ccc(NC(=O)C5(CO)CNC5)cc4)n3)n2)n1 [Compound 209, 3-(hydroxymethyl)-N-(4-((4-((2-(6-methylpyridin-2-yl)pyrimidin-4-yl)amino)pyrimidin-2-yl)amino)phenyl)azetidine-3-carboxamide]",≤ 20 nM,0.0398 to 0.316 nM
"Cc1cccc(-c2nccc(Nc3ccnc(Nc4ccc(CN5CCC[C@H](C(=O)O[C@H]6CCN(C)C6)C5)cc4)n3)n2)n1 [Compound 210, [(3S)-1-methylpyrrolidin-3-yl] (3S)-1-[[4-[[4-[[2-(6-methyl-2-pyridyl)pyrimidin-4-yl]amino]pyrimidin-2-yl]amino]phenyl]methyl] piperidine-3-carboxylate]",≤ 20 nM,0.0398 to 0.316 nM
"Cc1cccc(-c2nccc(Nc3ccnc(Nc4csc(NC(=O)C5CNC5)c4)n3)n2)n1 [Compound 211, N-[4-[[4-[[2-(6-methyl-2-pyridyl)pyrimidin-4-yl]amino]pyrimidin-2-yl]amino]-2-thienyl]azetidine-3-carboxamide]",25.1 to 158 nM,0.0398 to 0.316 nM
"Cc1cccc(-c2nccc(Nc3ccnc(Nc4ccc(S(=O)(=O)N5CCN(C(C)C)CC5)cc4)n3)n2)n1 [Compound 213, N2-[4-(4-isopropylpiperazin-1-yl)sulfonylphenyl]-N4-[2-(6-methyl-2-pyridyl)pyrimidin-4-yl]pyrimidine-2,4-diamine]",25.1 to 158 nM,0.0398 to 0.316 nM
"Cc1cccc(-c2nccc(Nc3ccnc(Nc4ccc(CN5CCCC(C(=O)NC6CNC6)C5)cc4)n3)n2)n1 (centres unmarked) [Compound 214, N-(azetidin-3-yl)-1-[[4-[[4-[[2-(6-methyl-2-pyridyl)pyrimidin-4-yl]amino]pyrimidin-2-yl]amino]phenyl]methyl] piperidine-3-carboxamide]",25.1 to 158 nM,0.0398 to 0.316 nM
"Cc1cccc(-c2nccc(Nc3ccnc(Nc4ccc(N5CCCC(C(=O)OC6CCNCC6)C5)cc4)n3)n2)n1 (centres unmarked) [Compound 215, 4-piperidyl 1-[4-[[4-[[2-(6-methyl-2-pyridyl)pyrimidin-4-yl]amino]pyrimidin-2-yl]amino]phenyl]piperidine-3-carboxylate]",200 to 1260 nM,0.0398 to 0.316 nM
"Cc1cccc(-c2nccc(Nc3ccnc(Nc4csc(C(=O)O[C@H]5CCN(C)C5)c4)n3)n2)n1 [Compound 217, [(3S)-1-methylpyrrolidin-3-yl] 4-[[4-[[2-(6-methyl-2-pyridyl)pyrimidin-4-yl]amino]pyrimidin-2-yl]amino]thiophene-2-carboxylate]",25.1 to 158 nM,0.0398 to 0.316 nM
"Cc1cccc(-c2nccc(Nc3ccnc(Nc4ccc(N5CCC(C(=O)OC6CCNCC6)CC5)cc4)n3)n2)n1 [Compound 218, 4-piperidyl 1-[4-[[4-[[2-(6-methyl-2-pyridyl)pyrimidin-4-yl]amino]pyrimidin-2-yl]amino]phenyl]piperidine-4-carboxylate]",25.1 to 158 nM,0.0398 to 0.316 nM
"Cc1cccc(-c2nccc(Nc3ccnc(Nc4ccc(N5CCC(CNCc6ccccn6)CC5)cc4)n3)n2)n1 [Compound 219, N4-[2-(6-methyl-2-pyridyl)pyrimidin-4-yl]-N2-[4-[4-[(2-pyridylmethylamino)methyl]-1-piperidyl]phenyl]pyrimidine-2,4-diamine]",25.1 to 158 nM,0.0398 to 0.316 nM
"Cc1cccc(-c2nccc(Nc3ccnc(Nc4ccc(N5CCC(C(=O)OC6CNC6)CC5)cc4)n3)n2)n1 [Compound 220, azetidin-3-yl 1-[4-[[4-[[2-(6-methyl-2-pyridyl)pyrimidin-4-yl]amino]pyrimidin-2-yl]amino]phenyl]piperidine-4-carboxylate]",25.1 to 158 nM,0.0398 to 0.316 nM
"Cc1cccc(-c2nccc(Nc3ccnc(Nc4ccc(N5C6CCC5CNC6)cc4)n3)n2)n1 [Compound 221, N2-(4-(3,8-diazabicyclo[3.2.1]octan-8-yl)phenyl)-N4-(2-(6-methylpyridin-2-yl)pyrimidin-4-yl)pyrimidine-2,4-diamine]",25.1 to 158 nM,0.0398 to 0.316 nM
